Reference: patent publication US20250195521A1 (Revolution Medicines, Inc., priority 2020, published 2025)
Where two headings read alike, the source gives them in different places.

How the values were obtained:
[1] = target: NRAS G12C (Homo sapiens (Human), UniProt P01111+P62937, G12C); assay: Ras-Raf disruption/FRET/MOA assay (BRAF RBD, Cyclophilin A); format: biochemical; details: read-out: NRAS G12C FRET data IC50
Summary of the method: (§1)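 First, 25 μM Cyclophilin A, 12.5 nM His6-Ras-GMPPNP and 50 nM GST-BRAF RBD are mixed with diluted compound at pH 7.3. Next, 3 h at 25° C. Then 10 nM anti-His Eu-W1024 plus 50 nM anti-GST allophycocyanin for 1.5 h before TR-FRET reading.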

[2] = target: KRAS G12D (Homo sapiens (Human), UniProt P01116+P62937, G12D); assay: as above; format: biochemical; details: read-out: KRAS G12D FRET IC50
Chain of KRAS G12D (P01116 other isoform, or with tags, fused parts or gaps G12D): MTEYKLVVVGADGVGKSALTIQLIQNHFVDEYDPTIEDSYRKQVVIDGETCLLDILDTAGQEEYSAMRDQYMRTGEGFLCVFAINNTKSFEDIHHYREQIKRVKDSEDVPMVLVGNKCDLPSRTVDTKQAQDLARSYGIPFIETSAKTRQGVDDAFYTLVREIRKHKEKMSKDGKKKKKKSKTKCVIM
Chain of KRAS G12D (P62937 whole entry): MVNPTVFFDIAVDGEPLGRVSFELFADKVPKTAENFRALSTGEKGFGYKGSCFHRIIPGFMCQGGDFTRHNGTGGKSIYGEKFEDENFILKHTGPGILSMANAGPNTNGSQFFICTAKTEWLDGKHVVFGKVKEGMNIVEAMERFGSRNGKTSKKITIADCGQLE
Summary of the method: (§2)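 25 μM tagless Cyclophilin A, 12.5 nM His6-Ras-GMPPNP and 50 nM GST-BRAF RBD in HEPES pH 7.3 buffer with 5 mM MgCl2, with compound (10-point 3-fold series from 30 μM final) for 3 h at 25 °C. Anti-His Eu and anti-GST APC then added for 1.5 h. IC50 from TR-FRET ratio decrease versus DMSO.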

[3] = target: NRAS WT (Homo sapiens (Human), UniProt P01111+P62937); assay: as above; format: biochemical
Chain of NRAS WT (P01111 whole entry): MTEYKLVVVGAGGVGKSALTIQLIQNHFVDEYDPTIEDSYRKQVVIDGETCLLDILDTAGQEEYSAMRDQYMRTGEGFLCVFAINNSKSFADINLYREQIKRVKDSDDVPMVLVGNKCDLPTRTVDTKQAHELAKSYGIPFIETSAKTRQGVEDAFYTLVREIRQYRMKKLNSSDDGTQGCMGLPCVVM
Chain of NRAS WT (P62937 whole entry): as the sequence (P62937 whole entry) above
Summary of the method: as §1

[4] = target: KRAS G12S (Homo sapiens (Human), UniProt P01116+P62937, G12S); assay: as above; format: biochemical; details: read-out: KRAS G12S FRET IC50
Chain of KRAS G12S (P01116 other isoform, or with tags, fused parts or gaps G12S): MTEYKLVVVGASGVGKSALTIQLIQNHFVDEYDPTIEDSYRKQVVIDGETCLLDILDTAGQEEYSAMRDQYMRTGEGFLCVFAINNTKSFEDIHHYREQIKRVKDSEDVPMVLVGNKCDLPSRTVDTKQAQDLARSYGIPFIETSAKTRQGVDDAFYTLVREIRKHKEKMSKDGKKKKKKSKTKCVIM
Chain of KRAS G12S (P62937 whole entry): as the sequence (P62937 whole entry) above
Summary of the method: as §2

[5] = target: KRAS G13C (Homo sapiens (Human), UniProt P01116+P62937, G13C); assay: as above; format: biochemical; details: read-out: KRAS G13C FRET IC50
Chain of KRAS G13C (P01116 other isoform, or with tags, fused parts or gaps G13C): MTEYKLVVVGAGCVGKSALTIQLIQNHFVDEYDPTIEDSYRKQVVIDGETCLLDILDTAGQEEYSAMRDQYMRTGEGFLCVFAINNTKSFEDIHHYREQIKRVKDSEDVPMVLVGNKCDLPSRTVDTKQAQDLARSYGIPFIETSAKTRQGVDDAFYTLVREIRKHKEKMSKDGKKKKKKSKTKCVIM
Chain of KRAS G13C (P62937 whole entry): as the sequence (P62937 whole entry) above
Summary of the method: as §2

[6] = target: KRAS G13D (Homo sapiens (Human), UniProt P01116+P62937, G13D); assay: as above; format: biochemical; details: read-out: KRAS G13D FRET data IC50
Chain of KRAS G13D (P01116 other isoform, or with tags, fused parts or gaps G13D): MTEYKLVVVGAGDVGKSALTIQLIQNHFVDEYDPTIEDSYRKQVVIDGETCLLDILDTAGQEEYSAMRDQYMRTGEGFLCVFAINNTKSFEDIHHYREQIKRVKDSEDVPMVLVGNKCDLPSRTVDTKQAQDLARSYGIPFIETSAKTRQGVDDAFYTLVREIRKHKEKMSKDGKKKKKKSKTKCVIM
Chain of KRAS G13D (P62937 whole entry): as the sequence (P62937 whole entry) above
Summary of the method: as §2

[7] = target: KRAS G12V (Homo sapiens (Human), UniProt P01116+P62937, G12V); assay: as above; format: biochemical; details: read-out: KRAS G12V FRET IC50
Chain of KRAS G12V (P01116 other isoform, or with tags, fused parts or gaps G12V): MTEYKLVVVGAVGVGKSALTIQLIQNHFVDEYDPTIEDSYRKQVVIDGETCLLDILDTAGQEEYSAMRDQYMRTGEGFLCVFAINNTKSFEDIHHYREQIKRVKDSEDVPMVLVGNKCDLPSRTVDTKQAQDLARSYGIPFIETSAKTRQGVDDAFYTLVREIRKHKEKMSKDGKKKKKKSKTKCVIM
Chain of KRAS G12V (P62937 whole entry): as the sequence (P62937 whole entry) above
Summary of the method: as §2

[8] = target: KRAS Q61H (Homo sapiens (Human), UniProt P01116+P62937, Q61H); assay: as above; format: biochemical
Chain of KRAS Q61H (P01116 other isoform, or with tags, fused parts or gaps Q61H): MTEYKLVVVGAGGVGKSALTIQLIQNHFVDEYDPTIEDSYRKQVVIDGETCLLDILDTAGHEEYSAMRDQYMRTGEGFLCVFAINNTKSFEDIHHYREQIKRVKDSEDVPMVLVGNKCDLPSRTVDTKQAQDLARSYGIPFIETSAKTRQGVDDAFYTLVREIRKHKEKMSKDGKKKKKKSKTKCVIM
Chain of KRAS Q61H (P62937 whole entry): as the sequence (P62937 whole entry) above
Summary of the method: as §2

[9] = target: KRAS G12C (Homo sapiens (Human), UniProt P01116+P62937, G12C); assay: as above; format: biochemical; details: read-out: KRAS G12C FRET IC50
Chain of KRAS G12C (P01116-2 other isoform, or with tags, fused parts or gaps G12C): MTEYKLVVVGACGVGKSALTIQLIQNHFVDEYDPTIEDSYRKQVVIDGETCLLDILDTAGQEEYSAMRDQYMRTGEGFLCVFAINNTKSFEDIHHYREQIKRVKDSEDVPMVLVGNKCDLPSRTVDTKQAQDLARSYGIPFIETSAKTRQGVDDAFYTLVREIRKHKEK
Chain of KRAS G12C (P62937 whole entry): as the sequence (P62937 whole entry) above
Summary of the method: as §2

[10] = target: KRAS WT (Homo sapiens (Human), UniProt P01116+P62937); assay: as above; format: biochemical; details: read-out: KRAS WT FRET data IC50
Chain of KRAS WT (P01116 other isoform, or with tags, fused parts or gaps): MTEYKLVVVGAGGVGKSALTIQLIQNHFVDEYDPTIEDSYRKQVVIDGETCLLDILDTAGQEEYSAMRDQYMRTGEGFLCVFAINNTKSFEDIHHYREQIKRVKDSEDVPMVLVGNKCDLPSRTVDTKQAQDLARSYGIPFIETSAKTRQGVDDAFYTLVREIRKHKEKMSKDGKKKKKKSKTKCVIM
Chain of KRAS WT (P62937 whole entry): as the sequence (P62937 whole entry) above
Summary of the method: as §2

[11] = test system: Capan-1 cells (K-Ras G12V); assay: CellTiter-Glo cell viability, Capan-1; format: cell-based, human; details: K-Ras G12V, 5-day treatment, read-out: Capan-1 Cell Viability IC50
Summary of the method: (§3)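 Compounds dispensed directly onto seeded cells; on day 5 plates equilibrated ~30 min to room temperature and luminescence read. Signal normalized to DMSO average (%) and fitted by four-parameter logistic.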

[12] = test system: NCI-H358 cells (K-Ras G12C); assay: CellTiter-Glo cell viability, NCI-H358; format: cell-based, human; details: K-Ras G12C, 5-day treatment, read-out: H358 Cell Viability IC50
Summary of the method: as §3

[13] = test system: K-Ras G12C (NCI-H358 cells); assay: Potency assay: pERK in NCI-H358 cells; format: cell-based, human; details: Homo sapiens; NCI-H358 cells, 4 hours; read-out: pERK EC50 (H358 KRAS G12C)
Summary of the method: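 Cells plated the day before were exposed for 4 h at 37° C, 5% CO2 to a 10-point, 3-fold DMSO dilution series (10 mM top stock), in duplicate. Phospho-ERK was read by AlphaLISA SureFire Ultra or by In-Cell Western with DRAQ5 DNA stain, and IC50 came from a 4-parameter sigmoidal fit.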

[14] = test system: NCI-H358 (K-Ras G12C); assay: CellTiter-Glo cell viability assay, NCI-H358; format: cell-based, human; details: 5-day treatment; read-out: H358 Cell Viability assay data (K-Ras G12C, IC50)
Summary of the method: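 NCI-H358 (K-Ras G12C) cells treated with compound dispensed directly into plates. CellTiter-Glo luminescence read on day 5 after ~30 min equilibration to room temperature. Signal normalised to DMSO average ×100, then fitted with a four-parameter logistic model.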

[15] = target: K-Ras G12C(GMP-PNP) binding to BRAF RBD (Homo sapiens (Human), UniProt P01116+P62937, G12C); assay: Disruption of BRAF RBD interaction with K-Ras (FRET / MOA assay), K-Ras G12C; format: biochemical; details: read-out: KRAS G12C FRET IC50
Chain of K-Ras G12C(GMP-PNP) binding to BRAF RBD (P01116 other isoform, or with tags, fused parts or gaps G12C): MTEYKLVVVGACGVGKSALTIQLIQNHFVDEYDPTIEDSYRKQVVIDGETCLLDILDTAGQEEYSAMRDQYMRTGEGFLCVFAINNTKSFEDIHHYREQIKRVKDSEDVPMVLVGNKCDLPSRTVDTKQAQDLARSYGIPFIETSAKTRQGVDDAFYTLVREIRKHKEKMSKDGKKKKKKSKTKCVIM
Chain of K-Ras G12C(GMP-PNP) binding to BRAF RBD (P62937 whole entry): as the sequence (P62937 whole entry) above
Summary of the method: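 TR-FRET readout: after 3 h compound incubation at 25 °C, anti-His Eu and anti-GST allophycocyanin (10 and 50 nM final) added for a further 1.5 h. Dilution series was 10-point, 3-fold, top 30 μM final. Ras–cyclophilin A ternary complex formation blocks the BRAF RBD interaction; IC50 derived from reduced FRET ratio relative to DMSO.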

Chain of NRAS G12C (P01111 whole entry G12C): as the sequence (P01111 whole entry) above, with G12C counted along it
Chain of NRAS G12C (P62937 whole entry): as the sequence (P62937 whole entry) above

Row | Structure (SMILES) | IC50 [1] [nM] | IC50 [2] [nM] | IC50 [3] [nM] | IC50 [4] [nM] | IC50 [5] [nM] | IC50 [6] [nM] | IC50 [7] [nM] | IC50 [8] [nM] | IC50 [9] [nM] | IC50 [10] [nM] | IC50 ([12]; Homo sapiens, NCI-H358, 120 h) [nM] | EC50 [13] [nM] | IC50 ([11]; Homo sapiens, CAPAN-1, 120 h) [nM] | IC50 [12] [nM] | IC50 [14] [nM] | IC50 [15] [nM] | IC50 [11] [nM]
1 | CCn1c(-c2cccnc2[C@H](C)OC)c2c3cc(ccc31)-c1csc(n1)C[C@H](NC(=O)[C@H](C(C)C)N(C)C(=O)N1CC[C@@H]1C)C(=O)N1CCC[C@H](N1)C(=O)OCC(C)(C)C2 [Compound A304] | 10 to 100 | 100 to 1000 | 10 to 100 | 100 to 1000 | 100 to 1000 | 100 to 1000 | 100 to 1000 | 10 to 100 | 10 to 100 | 100 to 1000 |  |  | 10 to 100 |  |  |  | 
2 | CCn1c(-c2cccnc2[C@H](C)OC)c2c3cc(ccc31)-c1csc(n1)C[C@H](NC(=O)[C@H](C(C)C)N(C)C(=O)N(C)N(C)C)C(=O)N1CCC[C@H](N1)C(=O)OCC(C)(C)C2 [Compound A454] | 10 to 100 | 100 to 1000 | 10 to 100 | 100 to 1000 | 100 to 1000 | 100 to 1000 | 10 to 100 | 10 to 100 | 10 to 100 | 10 to 100 | 10 to 100 | < 5000 | 10 to 100 |  |  |  | 
3 | CCn1c(-c2cccnc2[C@H](C)OC)c2c3cc(ccc31)-c1csc(n1)C[C@H](NC(=O)[C@H](C(C)C)N(C)C(=O)N1CCOC3(COC3)C1)C(=O)N1CCC[C@H](N1)C(=O)OCC(C)(C)C2 [Compound A475] | 10 to 100 | 100 to 1000 | 10 to 100 | 100 to 1000 | 100 to 1000 | 100 to 1000 | 100 to 1000 | 10 to 100 | 10 to 100 | 10 to 100 |  | < 5000 | 10 to 100 |  |  |  | 
4 | CCn1c(-c2cccnc2[C@H](C)OC)c2c3cc(ccc31)-c1csc(n1)C[C@H](NC(=O)[C@H](C(C)C)N(C)C(=O)N1CC(Cc3cnn(C)c3)C1)C(=O)N1CCC[C@H](N1)C(=O)OCC(C)(C)C2 [Compound A500] | 10 to 100 | 100 to 1000 | 10 to 100 | 10 to 100 | 10 to 100 | 100 to 1000 | 10 to 100 | 10 to 100 | 10 to 100 | 10 to 100 |  |  |  |  |  |  | 
5 | CCO[C@@H]1c2nc(cs2)-c2ccc3c(c2)c(c(-c2cccnc2[C@H](C)OC)n3CC)CC(C)(C)COC(=O)[C@@H]2CCCN(N2)C(=O)[C@H]1NC(=O)[C@H]1[C@H](C)[C@@H]1c1cn(C)cn1 [Compound A507, (1R,2S,3R)—N-((6^3S,3S,4S,Z)-3-ethoxy-1^1-ethyl-1^2-(2-((S)-1-methoxyethyl)pyridin-3-yl)-10, 10-dimethyl-5,7-dioxo-6^1,6^2,6^3,6^4,6^5,6^6-hexahydro-1^1H-8-oxa-2 (4,2)-thiazola-1 (5,3)-indola-6 (1,3)-pyridazinacycloundecaphane-4-yl)-2-methyl-3-(1-methyl-1H-imidazol-4-yl) cyclopropane-1-carboxamide] |  | 10 to 100 |  | 10 to 100 | 10 to 100 |  | 10 to 100 | 10 to 100 | 10 to 100 |  |  |  |  | 10 to 100 | 100 to 1000 | 100 to 1000 | 100 to 1000
6 | CCn1c(-c2cccnc2[C@H](C)OC)c2c3cc(ccc31)-c1csc(n1)C[C@H](NC(=O)[C@H](C(C)C)N(C)C(=O)N1CCN3C(=O)CN(C)C[C@@H]3C1)C(=O)N1CCC[C@H](N1)C(=O)OCC(C)(C)C2 [Compound A536] | 10 to 100 | 100 to 1000 | 10 to 100 | 100 to 1000 | 100 to 1000 | 100 to 1000 | 100 to 1000 | 10 to 100 | 10 to 100 | 10 to 100 | < 10 | < 5000 | 10 to 100 |  |  |  | 

Second part, led by results:

Row | IC50 [1] [nM] | IC50 [2] [nM] | IC50 [3] [nM] | IC50 [4] [nM] | IC50 [5] [nM] | IC50 [6] [nM] | IC50 [7] [nM] | IC50 [8] [nM] | IC50 [9] [nM] | IC50 [10] [nM] | IC50 ([12]; Homo sapiens, NCI-H358, 120 h) [nM] | EC50 [13] [nM] | Structure (SMILES) | IC50 ([11]; Homo sapiens, CAPAN-1, 120 h) [nM] | IC50 [12] [nM] | IC50 [14] [nM] | IC50 [15] [nM] | IC50 [11] [nM]
7 | 10 to 100 | 100 to 1000 | 10 to 100 | 100 to 1000 | 100 to 1000 | 100 to 1000 | 10 to 100 | 10 to 100 | 10 to 100 | 100 to 1000 |  |  | CCn1c(-c2cccnc2[C@H](C)OC)c2c3cc(ccc31)-c1csc(n1)C[C@H](NC(=O)[C@H](C(C)C)N(C)C(=O)N1CCC1)C(=O)N1CCC[C@H](N1)C(=O)OCC(C)(C)C2 [Compound A399] | 10 to 100 |  |  |  | 
8 | 10 to 100 | 100 to 1000 | 10 to 100 | 100 to 1000 | 100 to 1000 | 100 to 1000 | 100 to 1000 | 10 to 100 | 10 to 100 | 100 to 1000 |  |  | CCn1c(-c2cc(N3CCN(C)CC3)cnc2[C@H](C)OC)c2c3cc(ccc31)-c1csc(n1)C[C@H](NC(=O)[C@H](C(C)C)N(C)C(=O)[C@@H]1OCC[C@@H]1c1ccncc1)C(=O)N1CCC[C@H](N1)C(=O)OCC(C)(C)C2 [Compound A450] |  |  |  |  | 
9 | 10 to 100 | 100 to 1000 | 10 to 100 | 10 to 100 | 10 to 100 | 100 to 1000 | 10 to 100 | 10 to 100 | 10 to 100 | 10 to 100 |  |  | CCn1c(-c2cc(N3CCN(C)CC3)cnc2[C@H](C)OC)c2c3cc(ccc31)-c1csc(n1)C[C@H](NC(=O)[C@H](C(C)C)N(C)C(=O)N1CC(C3COC3)C1)C(=O)N1CCC[C@H](N1)C(=O)OCC(C)(C)C2 [Compound A465] |  |  |  |  | 
